A word on the EC50: it is the concentration giving half of the maximal effect.

Where two headings read alike, the source gives them in different places. Bridge positions count the residues as written; N and C are the ends. Peptide text beside a SMILES is read from it.

One experiment has as its system PD-L1 antibody. Kind of experiment: Peptide antibody dissociation ELISA (PD-L1 antibody). The following applies: for pH 5.4: pH 7.2 EC 50 ratio: pH 5.4 vs pH 7.2; for pH 6.0: pH 7.2 EC 50 ratio: pH 6.0 vs pH 7.2. In kind it is binding. As to the method: (§1) To begin, peptides were immobilized on neutravidin coated and blocked wells. […] After binding at 4 degrees the plates were washed extensively as before. Next the peptides were incubated with either neutral or acidic pH buffers for approximately 30 minutes and then washed again. The specifically peptide bound antibodies were detected by either anti-mouse Fc or anti-mouse kappa chain HRP conjugated antibodies using standard TMB-based chromogenic ELISA procedures. The effects of pH upon affinity were determined by standard EC50 analysis of each of the distinct pH dilution series binding curves and comparison of their respective EC50 values.

Experiment [1] has as its system anti-mouse CTLA-4 antibody (clone 9D9). Kind of experiment: Peptide antibody dissociation ELISA (CTLA-4 antibody). The following applies: for pH responsiveness: FIG. 11A-11C legend, unoptimized peptide candidates. The experiment is classed as binding. On the procedure:
as §1
For orientation: An ELISA detects its analyte on a solid surface through an enzyme-linked reagent.

The mark [2] stands for this setting: pH 5.4, read-out: EC50 [M] pH 5.4.
The mark [3] stands for this setting: pH 6.0, read-out: EC50 [M] pH 6.0.
Where [4] appears, read: pH 7.2, read-out: EC50 [M] pH 7.2.

On to `CC[C@H](C)[C@H](NC(=O)[C@H](Cc1c[nH]cn1)NC(=O)[C@H](Cc1ccc(O)cc1)NC(=O)[C@@H](NC(=O)[C@H](CO)NC(=O)[C@@H]1CCCN1C(=O)[C@H](Cc1ccc(O)cc1)NC(=O)[C@H](Cc1ccccc1)NC(=O)[C@H](CC(C)C)NC(=O)[C@@H](N)CCC(N)=O)[C@@H](C)O)C(=O)N[C@H](C(=O)N[C@@H](CC(=O)O)C(=O)O)[C@@H](C)CC` [Peptide 20] (H-QLFYPSTYHIID-OH), for which the EC50 in the experiment with PD-L1 antibody (setting [2]) was found to be 8.4e-10 M; in the experiment with PD-L1 antibody (setting [3]) it was 2.1e-10 M; in the experiment with PD-L1 antibody (setting [4]), 1.3e-10 M. Also, the “pH 5.4: pH 7.2 EC 50 ratio” value with PD-L1 antibody came out at 6.7. Further, the “pH 6.0: pH 7.2 EC 50 ratio” value with PD-L1 antibody amounted to 1.7.

With `CSCC[C@H](NC(=O)CNC(=O)CN)C(=O)N[C@H]1CSSC[C@@H](C(=O)N[C@@H](CCC(N)=O)C(=O)O)NC(=O)[C@H](Cc2c[nH]c3ccccc23)NC(=O)[C@H](CC(N)=O)NC(=O)[C@H](CC(C)C)NC(=O)[C@H](CC(N)=O)NC(=O)[C@H](CO)NC(=O)[C@H](Cc2ccc(O)cc2)NC(=O)[C@H](Cc2ccccc2)NC(=O)[C@H](CC(C)C)NC(=O)[C@H](CCC(=O)O)NC(=O)[C@H](Cc2c[nH]cn2)NC1=O` [Peptide 22] (H-GGMCHELFYSNLNWCQ-OH; disulfide 4-15), the EC50 in the experiment on PD-L1 antibody (setting [2]) worked out at 3.5e-10 M; in the experiment on PD-L1 antibody (setting [3]), 7e-11 M; in the experiment on PD-L1 antibody (setting [4]) it was 4.5e-11 M. The “pH 5.4: pH 7.2 EC 50 ratio” value with PD-L1 antibody came to 7.8. Besides, in the experiment with PD-L1 antibody, the “pH 6.0: pH 7.2 EC 50 ratio” value worked out at 1.5.

For `CSCC[C@@H]1NC(=O)[C@H](CC(=O)O)NC(=O)[C@H](C(C)C)NC(=O)[C@@H](NC(=O)[C@H](Cc2c[nH]cn2)NC(=O)CNC(=O)CN)CSSC[C@@H](C(=O)N[C@@H](CCC(N)=O)C(=O)O)NC(=O)[C@H]([C@@H](C)O)NC(=O)[C@H](CCC(N)=O)NC(=O)[C@H](CCC(N)=O)NC(=O)[C@H](Cc2ccc(O)cc2)NC(=O)[C@H](Cc2ccccc2)NC(=O)[C@H](CC(=O)O)NC(=O)[C@H](C(C)C)NC1=O` [Peptide 23] (H-GGHCVDMVDFYQQTCQ-OH; disulfide 4-15), in experiment [1] (pH 7.2), the “EC50 [M] pH 7.2” value is recorded as “Inactive”. Further, the EC50 was found to be 3.9e-09 M in the experiment on PD-L1 antibody (setting [2]), 1.3e-09 M in the experiment on PD-L1 antibody (setting [3]) and 3e-10 M in the experiment with PD-L1 antibody (setting [4]). Besides, the “pH 5.4: pH 7.2 EC 50 ratio” value with PD-L1 antibody turned out to be 12.9. Also, the “pH 6.0: pH 7.2 EC 50 ratio” value in the experiment with PD-L1 antibody was determined as 4.3.

Regarding `CC(C)C[C@@H]1NC(=O)CNC(=O)[C@H](CO)NC(=O)[C@H](CCCCN)NC(=O)[C@H](CC(N)=O)NC(=O)[C@H](Cc2c[nH]cn2)NC(=O)[C@@H](NC(=O)CNC(=O)CN)CSSC[C@@H](C(=O)O)NC(=O)[C@H](Cc2ccc(O)cc2)NC(=O)[C@H](Cc2c[nH]cn2)NC(=O)[C@H](Cc2ccc(O)cc2)NC(=O)[C@H](Cc2ccccc2)NC1=O` [Peptide 24] (H-GGCHNKSGLFYHYC-OH; disulfide 3-14), the EC50 is 1.3e-09 M with PD-L1 antibody (setting [2]), 5.6e-10 M with PD-L1 antibody (setting [3]) and 2e-10 M in the experiment with PD-L1 antibody (setting [4]). Further, the “pH 5.4: pH 7.2 EC 50 ratio” value with PD-L1 antibody is 6.6. The “pH 6.0: pH 7.2 EC 50 ratio” value with PD-L1 antibody amounted to 2.8.

With `CC(C)C[C@H](NC(=O)[C@H](CCC(=O)O)NC(=O)[C@H](CCC(=O)O)NC(=O)[C@H](Cc1ccc(O)cc1)NC(=O)[C@H](Cc1ccccc1)NC(=O)[C@H](Cc1ccc(O)cc1)NC(=O)[C@H](CC(C)C)NC(=O)[C@@H]1CCCN1C(=O)[C@H](CO)NC(=O)[C@@H](NC(=O)[C@@H](N)CCC(N)=O)C(C)C)C(=O)N[C@@H](C)C(=O)O` [Peptide 27], the EC50 in the experiment with PD-L1 antibody (setting [3]) came to 9e-10 M.

Regarding `CC[C@H](C)[C@@H]1NC(=O)[C@H](CC(=O)O)NC(=O)[C@H](C(C)C)NC(=O)[C@H](CCC(N)=O)NC(=O)[C@@H]2CCCN2C(=O)[C@H](CCC(=O)O)NC(=O)[C@H](Cc2ccc(O)cc2)NC(=O)[C@H](Cc2ccccc2)NC(=O)[C@H]([C@@H](C)O)NC(=O)[C@H](CO)NC(=O)[C@@H](NC(=O)[C@H](CC(C)C)NC(=O)CNC(=O)CN)CSSC[C@@H](C(=O)N[C@@H](Cc2ccc(O)cc2)C(=O)O)NC1=O` [Peptide 29] (H-GGLCSTFYEPQVDICY-OH; disulfide 4-15), the EC50 in the experiment with PD-L1 antibody (setting [2]) amounted to 1.5e-09 M; in the experiment on PD-L1 antibody (setting [3]), 4.9e-10 M; in the experiment on PD-L1 antibody (setting [4]), 2.3e-10 M. Further, the “pH 5.4: pH 7.2 EC 50 ratio” value with PD-L1 antibody was found to be 6.5. For the same molecule, the “pH 6.0: pH 7.2 EC 50 ratio” value with PD-L1 antibody worked out at 2.1.

Consider `CC(C)[C@@H]1NC(=O)[C@@H](NC(=O)CNC(=O)CN)CSSC[C@@H](C(=O)O)NC(=O)[C@H](CC(=O)O)NC(=O)[C@@H]2CCCN2C(=O)[C@H](CCCNC(=N)N)NC(=O)[C@H](CCC(N)=O)NC(=O)[C@H](Cc2c[nH]cn2)NC(=O)[C@H](Cc2c[nH]cn2)NC(=O)[C@H](Cc2ccccc2)NC(=O)[C@H](Cc2ccccc2)NC(=O)[C@H](Cc2c[nH]cn2)NC1=O` [Peptide 31], for which the EC50 in the experiment with PD-L1 antibody (setting [2]) was 1.5e-09 M; in the experiment with PD-L1 antibody (setting [3]), 3.6e-10 M.

With “GGADCLLHDWDSACQI [Peptide 10, control in the PD-L1 antibody test]”, the pH responsiveness entry in experiment [1] is “significant pH responsiveness”. The “EC50 [M] pH 7.2” value with PD-L1 antibody (pH 7.2) is reported as “Inactive”.

In the case of GGCFEEHEQLVFQTHC [Peptide 5], the pH responsiveness entry in experiment [1] is “significant pH responsiveness”.

Turning to GGCILPGQHESQAIAC [Peptide 6], in experiment [1], the pH responsiveness entry is listed as “significant pH responsiveness”.

The values above are taken from US20180339043A1, “MODIFIED ANTIBODIES” (Janux Therapeutics, Inc., priority 2017, published 2018).
